Values of other authors in publication PMC8513935.

Tests used:
[1] = experimental, compiled by the authors from the literature (the ESI cites the sources)
[2] = log P octanol/water from commercial databases, averaged (the ESI); conditions: Octanol (wet), 25 C
[3] = derived by the authors as gas->solvent minus gas->water (a hypothetical dry solvent; the ESI), not a two-phase measurement

In the case of C=C, the log K of transfer, gas to solvent ([1]; 1,2-Dichloroethane, 25 C) is listed as 0.36 log10 K, the log K of transfer, gas to solvent ([1]; 2-Methylpropan-1-ol, 25 C) is listed as 0.34 log10 K and the log K of transfer, gas to solvent ([1]; 2-Methylpropan-2-ol, 25 C) is listed as 0.36 log10 K. For the same molecule, the log K of transfer, gas to solvent ([1]; Butan-1-ol, 25 C) was 0.34 log10 K, the log K of transfer, gas to solvent ([1]; Butan-2-ol, 25 C) was 0.32 log10 K and the log K of transfer, gas to solvent ([1]; CCl4, 25 C) was 0.57 log10 K. For the same molecule, the log K of transfer, gas to solvent ([1]; Chlorobenzene, 25 C) was 0.45 log10 K, the log K of transfer, gas to solvent ([1]; Cyclohexanone, 25 C) was 0.401 log10 K and the log K of transfer, gas to solvent ([1]; Ethanol, 25 C) was 0.41 log10 K. The log K of transfer, gas to solvent ([1]; Heptan-1-ol, 25 C) was 0.312 log10 K, the log K of transfer, gas to solvent ([1]; Hexadecane, 25 C) was 0.289 log10 K and the log K of transfer, gas to solvent ([1]; Hexan-1-ol, 25 C) was 0.318 log10 K. For the same molecule, the log K of transfer, gas to solvent ([1]; Hexane, 25 C) was 0.471 log10 K, the log K of transfer, gas to solvent ([1]; Methanol, 25 C) was 0.41 log10 K and the log K of transfer, gas to solvent ([1]; Octan-1-ol, 25 C) was 0.28 log10 K. For the same molecule, the log K of transfer, gas to solvent ([1]; Pentan-1-ol, 25 C) was 0.35 log10 K, the log K of transfer, gas to solvent ([1]; Propan-1-ol, 25 C) was 0.38 log10 K and the log K of transfer, gas to solvent ([1]; Propan-2-ol, 25 C) was 0.33 log10 K. The log K of transfer, gas to solvent ([1]; Propanone, 25 C) was 0.56 log10 K, the log K of transfer, gas to solvent ([1]; Tetrahydrofuran, 25 C) was 0.6 log10 K and the log K of transfer, gas to solvent ([1]; Water, 25 C) was -0.94 log10 K. For the same molecule, the log K of transfer, water to solvent [2] was 1.13 log10 K, the log K of transfer, water to solvent ([3]; 1,2-Dichloroethane, 25 C) was 1.3 log10 K and the log K of transfer, water to solvent ([3]; 2-Methylpropan-1-ol, 25 C) was 1.28 log10 K. The log K of transfer, water to solvent ([3]; 2-Methylpropan-2-ol, 25 C) was 1.3 log10 K, the log K of transfer, water to solvent ([3]; Acetone, 25 C) was 1.5 log10 K and the log K of transfer, water to solvent ([3]; Butan-1-ol, 25 C) was 1.28 log10 K. The log K of transfer, water to solvent ([3]; Butan-2-ol, 25 C) was 1.26 log10 K, the log K of transfer, water to solvent ([3]; CCl4, 25 C) was 1.51 log10 K and the log K of transfer, water to solvent ([3]; Chlorobenzene, 25 C) was 1.39 log10 K. The log K of transfer, water to solvent ([3]; Cyclohexanone, 25 C) was 1.34 log10 K, the log K of transfer, water to solvent ([3]; Ethanol, 25 C) was 1.35 log10 K and the log K of transfer, water to solvent ([3]; Heptan-1-ol, 25 C) was 1.25 log10 K. The log K of transfer, water to solvent ([3]; Hexadecane, 25 C) was 1.23 log10 K, the log K of transfer, water to solvent ([3]; Hexan-1-ol, 25 C) was 1.26 log10 K and the log K of transfer, water to solvent ([3]; Hexane, 25 C) was 1.41 log10 K. For the same molecule, the log K of transfer, water to solvent ([3]; Methanol, 25 C) was 1.35 log10 K, the log K of transfer, water to solvent ([3]; Octan-1-ol(dry), 25 C) was 1.22 log10 K and the log K of transfer, water to solvent ([3]; Pentan-1-ol, 25 C) was 1.29 log10 K. The log K of transfer, water to solvent ([3]; Propan-1-ol, 25 C) was 1.32 log10 K, the log K of transfer, water to solvent ([3]; Propan-2-ol, 25 C) was 1.27 log10 K and the log K of transfer, water to solvent ([3]; Tetrahydrofuran, 25 C) was 1.54 log10 K.
In the case of CCC1CCCCC1, the log K of transfer, gas to solvent ([1]; 1,2-Dichloroethane, 25 C) is given as 3.57 log10 K, the log K of transfer, gas to solvent ([1]; Acetonitrile, 25 C) is given as 2.87 log10 K and the log K of transfer, gas to solvent ([1]; Butan-1-ol, 25 C) is given as 3.44 log10 K. The log K of transfer, gas to solvent ([1]; Butanone, 25 C) was 3.53 log10 K, the log K of transfer, gas to solvent ([1]; Butyronitrile, 25 C) was 3.35 log10 K and the log K of transfer, gas to solvent ([1]; CCl4, 25 C) was 4.08 log10 K. The log K of transfer, gas to solvent ([1]; Chlorobenzene, 25 C) was 4.06 log10 K, the log K of transfer, gas to solvent ([1]; Chloroform, 25 C) was 3.99 log10 K and the log K of transfer, gas to solvent ([1]; Cyclohexanone, 25 C) was 3.55 log10 K. The log K of transfer, gas to solvent ([1]; Dichloromethane, 25 C) was 3.82 log10 K, the log K of transfer, gas to solvent ([1]; Ethanol, 25 C) was 3.27 log10 K and the log K of transfer, gas to solvent ([1]; Hexadecane, 25 C) was 3.88 log10 K. For the same molecule, the log K of transfer, gas to solvent ([1]; Hexane, 25 C) was 3.97 log10 K, the log K of transfer, gas to solvent ([1]; Methanol, 25 C) was 2.96 log10 K and the log K of transfer, gas to solvent ([1]; Perfluoroalkane, 25 C) was 2.56 log10 K. For the same molecule, the log K of transfer, gas to solvent ([1]; Propan-1-ol, 25 C) was 3.28 log10 K, the log K of transfer, gas to solvent ([1]; Propan-2-ol, 25 C) was 3.27 log10 K and the log K of transfer, gas to solvent ([1]; Propanone, 25 C) was 3.32 log10 K. The log K of transfer, gas to solvent ([1]; Propionitrile, 25 C) was 3.17 log10 K, the log K of transfer, gas to solvent ([1]; Tetrahydrofuran, 25 C) was 3.92 log10 K and the log K of transfer, gas to solvent ([1]; Water, 25 C) was -1.58 log10 K. The log K of transfer, water to solvent [2] was 4.56 log10 K, the log K of transfer, water to solvent ([3]; 1,2-Dichloroethane, 25 C) was 5.15 log10 K and the log K of transfer, water to solvent ([3]; Acetone, 25 C) was 4.9 log10 K. The log K of transfer, water to solvent ([3]; Acetonitrile, 25 C) was 4.45 log10 K, the log K of transfer, water to solvent ([3]; Butan-1-ol, 25 C) was 5.02 log10 K and the log K of transfer, water to solvent ([3]; Butanone, 25 C) was 5.11 log10 K. The log K of transfer, water to solvent ([3]; Butyronitrile, 25 C) was 4.93 log10 K, the log K of transfer, water to solvent ([3]; CCl4, 25 C) was 5.66 log10 K and the log K of transfer, water to solvent ([3]; Chlorobenzene, 25 C) was 5.64 log10 K. The log K of transfer, water to solvent ([3]; Chloroform, 25 C) was 5.57 log10 K, the log K of transfer, water to solvent ([3]; Cyclohexanone, 25 C) was 5.13 log10 K and the log K of transfer, water to solvent ([3]; Dichloromethane, 25 C) was 5.4 log10 K. The log K of transfer, water to solvent ([3]; Ethanol, 25 C) was 4.84 log10 K, the log K of transfer, water to solvent ([3]; Hexadecane, 25 C) was 5.45 log10 K and the log K of transfer, water to solvent ([3]; Hexane, 25 C) was 5.55 log10 K. The log K of transfer, water to solvent ([3]; Methanol, 25 C) was 4.54 log10 K, the log K of transfer, water to solvent ([3]; Perfluoroalkane, 25 C) was 4.14 log10 K and the log K of transfer, water to solvent ([3]; Propan-1-ol, 25 C) was 4.86 log10 K. For the same molecule, the log K of transfer, water to solvent ([3]; Propan-2-ol, 25 C) was 4.85 log10 K, the log K of transfer, water to solvent ([3]; Propionitrile, 25 C) was 4.75 log10 K and the log K of transfer, water to solvent ([3]; Tetrahydrofuran, 25 C) was 5.5 log10 K.
For Cc1cccnc1, the log K of transfer, gas to solvent ([1]; 2-Methylpropan-2-ol, 25 C) is listed as 4.27 log10 K, the log K of transfer, gas to solvent ([1]; Butan-1-ol, 25 C) is listed as 4.7 log10 K and the log K of transfer, gas to solvent ([1]; Chloroform, 25 C) is listed as 5.39 log10 K. For the same molecule, the log K of transfer, gas to solvent ([1]; Cyclohexane, 25 C) was 3.77 log10 K, the log K of transfer, gas to solvent ([1]; Hexadecane, 25 C) was 3.63 log10 K and the log K of transfer, gas to solvent ([1]; Propan-1-ol, 25 C) was 4.65 log10 K. The log K of transfer, gas to solvent ([1]; Water, 25 C) was 3.5 log10 K, the log K of transfer, water to solvent [2] was 1.2 log10 K and the log K of transfer, water to solvent ([3]; 2-Methylpropan-2-ol, 25 C) was 0.77 log10 K. For the same molecule, the log K of transfer, water to solvent ([3]; Butan-1-ol, 25 C) was 1.2 log10 K, the log K of transfer, water to solvent ([3]; Chloroform, 25 C) was 1.89 log10 K and the log K of transfer, water to solvent ([3]; Cyclohexane, 25 C) was 0.27 log10 K. The log K of transfer, water to solvent ([3]; Hexadecane, 25 C) was 0.131 log10 K and the log K of transfer, water to solvent ([3]; Propan-1-ol, 25 C) was 1.15 log10 K.
